# Assay results taken from publication PMC9369442, “Synthetic Peucedanocoumarin IV Prevents α-Synuclein Neurotoxicity in an Animal Model of Parkinson’s Disease” (International Journal of Molecular Sciences, 2022).
# Test system: combinatorial α-synucleinopathy PD mouse model
# Test: Sporadic PD mouse model, combinatorial PFF and rAAV-αSyn nigral injection, PCiv diet
# Assay type: in vivo
# Protocol: Figure 4 PCiv administration suppresses PFF-induced dopaminergic neurodegeneration, α-synuclein aggregation, and motor dysfunction in vivo. (A) Bradykinesia (slowness of movement) assessed by pole test for control and combinatorial PFF/AAV-αSyn-injected mice with or without PCiv treatment (50 mg PCiv/kg diet for 30 days, n = 5 per group). Control mice are those nigrally injected with PBS and AAV-GFP. (B) Motor coordination of the mice in the experimental group was assessed by an accelerated rotarod test (n = 5 per group). (C) Representative tyrosine hydroxylase (TH) immunohistochemical staining of the ventral midbrains of control and combinatorial α-synucleinopathy-PD mice fed with a PCiv diet (50 mg/kg diet for 30 days) or normal chow diet. (D) Stereological assessment of TH-positive dopaminergic neurons in the substantia nigra pars compacta of the injection side of the indicated mice groups (n = 5 mice per group). (E) Representative immunofluorescence images of pS129-αSyn and TH in the substantia nigra coronal sections of the indicated experimental mice groups. (F) Quantification of relative pS129-αSyn fluorescence intensities in the TH-positive dopamine neurons of the substantia nigra sections from the indicated experimental groups (n = 28 cells from 3 mice per group). The quantified data are expressed as means ± SEMs. Statistical significance was determined by an ANOVA test with Tukey’s post hoc analysis, ** p < 0.01, *** p < 0.001, and **** p < 0.0001. ns = nonsignificant.
# All animal experiments were approved by the Ethical Committee of Sungkyunkwan University Animal Care and Use Committee of Gachon University (Approval number: […]2019-06-15-1; GIACUC-R2021006) and were conducted in accordance with all applicable international guidelines. Male C57BL/6N mice (2 months old) were obtained from Orient Bio (Suwon, Korea). The animals were housed in air-controlled rooms with a 12-h dark/light cycle. Mice and rats were provided ad libitum access to diet and water. All efforts were made to minimize animal suffering and the number of animals used in the experiments. A synthetic PCiv diet was supplied to the mice. The PCiv diet administration (50 mg/kg/day for PFF PD mouse models) began on day 0 and was continued for 30 days. Intranigral injection of the rAAV-αSyn and PFF mixture was performed on day 0. Mice brains were prepared for analysis, as described below. To test the therapeutic effects of PCiv, we prepared a diet containing PCiv. To facilitate each mouse consuming 2 mg of PCiv per day, we generated a mixture of 400 mg of PCiv per kg of rodent diet and then supplied it to the mice.
# The α-synucleinopathy PD model was created by co-injecting PFF (10 µg; ventral tegmental area: AP, −3.4 mm; ML, −0.5 mm; DV, −4.3 mm) and rAAV-αSyn (AAV serotype 1, 1 µL of titer 5 × 1011 GC/mL; substantia nigra pars compacta: AP, −3.4 mm; ML, −1.3 mm; DV, −4.3 mm) into a 2-month-old C57BL/6N mouse. rAAV-GFP was used as the control. PFF was prepared from pure recombinant human α-synuclein (Proteos, Inc., Kalamazoo, MI, USA) according to a previous report. Before use, sonicated PFFs were evaluated using Western blotting and a functional assay in cortical neuron cultures (pS129-αSyn induction and neurotoxicity). After co-injecting PFF and rAAV-αSyn, PD models were fed a PCiv or normal diet for a month. For stereological analysis, the animals were perfused 1 month after intranigral injection and fixed intracardially with ice-cold PBS. The tissues were post-fixed with 4% paraformaldehyde overnight. The fixed mice brains were cryoprotected in 30% sucrose (wt/vol) in PBS and subsequently processed for immunohistochemistry.
# Coronal sections (thickness, 35 µm) of the fixed and cryoprotected brains were cut, including the substantia nigra. […]
# [1] = PD mice, PCiv diet 50 mg/kg diet for 30 days
compound,measurement,setting,value
"C/C=C(\C)C(=O)O[C@H]1[C@H](OC(C)=O)c2c(ccc3ccc(=O)oc23)OC1(C)C (relative stereo) [PCiv, trans-4′-acetyl-3′-tigloylkhellactone]",total α-synuclein expression,"PBS+AAV-GFP and PFF+AAV-αSyn injection groups, PCiv diet",no alteration
same,development of motor impairment (pole and rotarod tests),"PD mice, PCiv diet 50 mg per kg diet, four weeks",almost completely prevented
same,"dopaminergic neurons (TH-positive, substantia nigra)",[1],marked protection
same,α-synuclein aggregation pathology (pS129-αSyn in TH-positive dopamine neurons),[1],largely blocked
same,dopamine neuron viability in control mouse group,"control mice (PBS + AAV-GFP), PCiv diet",no effect
same,overt toxicity,in cells and in vivo mouse models,did not observe any overt toxicity
